From patent publication US9783536B2, “Nitrogen-containing heterocyclic compound or salt thereof” (FUJIFILM Corporation, priority 2013, dated 2017)
pIC50: −log10 of the molar value. Read-outs that look alike come from different tables or passages of the source.

Key:
human PI3Kα protein = biological target: T1, human PI3Kα protein (Homo sapiens, UniProt P42336); test: PI3Kα enzyme assay (ADP-Glo); format: biochemical; settings: read-out: PI3Kα enzyme inhibitory activity
T1 construct: purchased Carna Biosciences, Inc; host or cells: baculovirus expression system
In short: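 Biotinylated human PI3Kα (baculovirus-expressed, 4.5 nmol/L) pre-incubated 15 min with compound in Tris-HCl pH 7.5, MgCl2, BSA; reaction 60 min at 25° C with 50 μmol/L PIP2 and 100 μmol/L ATP final. ADP quantified by ADP-Glo luminescence; IC50 calculated.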

[1] = biological target: T2, GST fusion human ERK2 protein (Homo sapiens, UniProt P28482); test: ERK2 enzyme assay (2); format: biochemical; settings: read-out: ERK2 enzyme inhibitory activity (2)
T2 construct: purchased Carna Biosciences, Inc; host or cells: E. coli expression system
In short: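 GST-tagged human ERK2 expressed in E. coli (1.25 nmol/L) was preincubated with compound for 15 min at room temperature in pH 7.5 Hepes buffer with MgCl2, DTT and Brij35. Reaction with FL-Peptide 8 (final 4.25 μmol/L) and ATP (final 1 mmol/L) ran 120 min at 25 °C; EDTA stopped it, and phosphorylated peptide was quantified by mobility-shift separation to derive IC50.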

T1 sequence (P42336 whole entry): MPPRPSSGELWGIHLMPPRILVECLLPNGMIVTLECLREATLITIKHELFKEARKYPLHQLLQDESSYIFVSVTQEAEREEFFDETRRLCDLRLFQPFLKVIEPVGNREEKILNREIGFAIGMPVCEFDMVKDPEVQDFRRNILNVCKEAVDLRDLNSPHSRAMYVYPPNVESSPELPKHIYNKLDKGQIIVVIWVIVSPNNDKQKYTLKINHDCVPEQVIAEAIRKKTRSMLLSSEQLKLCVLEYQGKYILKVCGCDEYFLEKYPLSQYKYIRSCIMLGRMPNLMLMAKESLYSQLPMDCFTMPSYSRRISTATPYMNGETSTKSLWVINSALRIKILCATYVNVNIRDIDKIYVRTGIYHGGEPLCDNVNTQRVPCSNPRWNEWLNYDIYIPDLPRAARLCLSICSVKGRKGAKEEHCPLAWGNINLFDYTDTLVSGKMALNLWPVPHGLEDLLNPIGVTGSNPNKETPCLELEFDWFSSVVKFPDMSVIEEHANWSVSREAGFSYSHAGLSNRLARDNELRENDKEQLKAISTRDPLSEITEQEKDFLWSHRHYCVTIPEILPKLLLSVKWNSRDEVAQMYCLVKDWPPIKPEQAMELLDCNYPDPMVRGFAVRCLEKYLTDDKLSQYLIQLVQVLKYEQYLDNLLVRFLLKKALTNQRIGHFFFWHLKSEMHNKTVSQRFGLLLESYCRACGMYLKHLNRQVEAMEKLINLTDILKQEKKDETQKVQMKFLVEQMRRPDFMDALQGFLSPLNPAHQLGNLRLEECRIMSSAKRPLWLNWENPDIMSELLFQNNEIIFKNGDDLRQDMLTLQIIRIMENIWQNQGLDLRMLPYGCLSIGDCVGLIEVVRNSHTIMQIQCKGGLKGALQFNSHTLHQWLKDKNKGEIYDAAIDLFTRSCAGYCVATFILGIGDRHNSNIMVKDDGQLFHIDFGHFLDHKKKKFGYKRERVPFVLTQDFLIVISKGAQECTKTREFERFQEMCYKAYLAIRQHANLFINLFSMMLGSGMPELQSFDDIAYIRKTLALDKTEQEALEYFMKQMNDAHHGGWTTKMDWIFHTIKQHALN
T1 sequence (P27986 whole entry partner): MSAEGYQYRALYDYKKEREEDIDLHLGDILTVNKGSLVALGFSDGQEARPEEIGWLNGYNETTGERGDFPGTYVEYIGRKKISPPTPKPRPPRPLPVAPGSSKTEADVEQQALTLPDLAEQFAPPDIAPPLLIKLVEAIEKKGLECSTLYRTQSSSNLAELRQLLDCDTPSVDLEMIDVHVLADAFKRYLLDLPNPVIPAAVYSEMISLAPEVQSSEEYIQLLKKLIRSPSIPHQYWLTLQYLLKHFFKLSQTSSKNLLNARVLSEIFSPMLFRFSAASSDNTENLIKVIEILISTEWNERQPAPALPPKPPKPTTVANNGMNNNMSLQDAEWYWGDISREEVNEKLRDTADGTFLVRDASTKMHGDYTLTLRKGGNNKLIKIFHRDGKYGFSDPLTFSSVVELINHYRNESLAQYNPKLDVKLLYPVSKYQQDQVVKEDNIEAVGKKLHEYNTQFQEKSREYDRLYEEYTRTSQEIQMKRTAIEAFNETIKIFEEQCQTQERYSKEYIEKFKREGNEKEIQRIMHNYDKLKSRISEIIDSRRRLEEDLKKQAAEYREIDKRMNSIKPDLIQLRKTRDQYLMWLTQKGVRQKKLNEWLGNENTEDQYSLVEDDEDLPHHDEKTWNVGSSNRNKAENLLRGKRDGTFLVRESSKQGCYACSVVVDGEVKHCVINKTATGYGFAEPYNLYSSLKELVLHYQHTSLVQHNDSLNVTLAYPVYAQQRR
T2 sequence (P28482 whole entry, the tested form may be a part): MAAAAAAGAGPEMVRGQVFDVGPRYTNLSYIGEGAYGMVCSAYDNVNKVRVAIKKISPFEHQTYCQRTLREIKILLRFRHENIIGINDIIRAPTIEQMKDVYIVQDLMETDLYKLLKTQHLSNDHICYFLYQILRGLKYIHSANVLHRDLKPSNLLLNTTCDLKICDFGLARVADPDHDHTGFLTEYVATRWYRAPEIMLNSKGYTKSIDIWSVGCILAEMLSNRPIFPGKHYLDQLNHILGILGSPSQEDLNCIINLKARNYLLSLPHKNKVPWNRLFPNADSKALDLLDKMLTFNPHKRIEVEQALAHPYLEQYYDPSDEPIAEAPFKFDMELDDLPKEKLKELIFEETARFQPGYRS

| SMILES | pIC50 (human PI3Kα protein) | pIC50 ([1]; ERK2 enzyme assay (2)) | pIC50 [1] |
| --- | --- | --- | --- |
| CC(C)c1cnnc(Nc2ccc3ncc(-c4cnn(CCCN5CC(NC(=O)OC(C)(C)C)C5)c4)cc3n2)c1 [Example 0693] | > 6.00 | > 6.00 | – |
| CC(C)c1cnnc(Nc2ccc3ncc(N4CCC(S(N)(=O)=O)C4)cc3n2)c1 (stereo not drawn) [Example 0900] | > 6.00 | 5.00 to 6.00 | – |
| Cn1cc(-c2cnc3ccc(Nc4cc(N5CCCC5)cnn4)nc3c2)cn1 [Example 0520] | 5.00 to 6.00 | > 6.00 | – |
| CC(C)c1cnnc(Nc2ccc3ncc(NC(=O)COCc4ccccc4)cc3n2)c1 [Example 0654, 2-(benzyloxy)-N-(6-((5-isopropylpyridazin-3-yl)amino)-1,5-naphthyridin-3-yl)acetamide] | > 6.00 | 5.00 to 6.00 | – |
| CC(C)c1cnnc(Nc2ccc3ncc(-c4cnn(C(C)C)c4)cc3n2)c1 [Example 0442] | > 6.00 | > 6.00 | – |
| CC(C)c1cnnc(Nc2ccc3ncc(-c4cn(C)nc4NC4CCCCCC4)cc3n2)c1 [Example 0949] | 5.00 to 6.00 | – | 5.00 to 6.00 |
| CC(C)c1cnnc(Nc2ccc3ncc(-c4cnn(Cc5cncnc5)c4)cc3n2)c1 [Example 0722] | > 6.00 | > 6.00 | – |
| CC(C)c1cnnc(Nc2ccc3ncc(-c4cnn(CC(=O)N5CCCCC5)c4)cc3n2)c1 [Example 0561] | > 6.00 | > 6.00 | – |
| COCCN(CCCn1cc(-c2cnc3ccc(Nc4cc(C(C)C)cnn4)nc3c2)cn1)CCOC [Example 0660] | > 6.00 | > 6.00 | – |
| CC(C)c1cnnc(Nc2ccc3ncc(-c4cnn(CCCN5CCN(c6ccncc6)CC5)c4)cc3n2)c1 [Example 0445] | > 6.00 | > 6.00 | – |
| CC(C)c1cnnc(Nc2ccc3ncc(-c4cnn(Cc5ccccc5N)c4)cc3n2)c1 [Example 0705, 7-(1-(2-aminobenzyl)-1H-pyrazol-4-yl)-N-(5-isopropylpyridazin-3-yl)-1,5-naphthyridine-2-amine] | > 6.00 | > 6.00 | – |
| CC(C)c1cnnc(Nc2ccc3ncc(-c4cnn(C)c4)c(Cl)c3n2)c1 [Example 0952, 8-Chloro-N-(5-isopropylpyridazin-3-yl)-7-(1-methyl-1H-pyrazol-4-yl)-1,5-naphthyridine-2-amine] | > 6.00 | – | > 6.00 |
| Cc1ccc(S(=O)(=O)NC2CN(CCCn3cc(-c4cnc5ccc(Nc6cc(C(C)C)cnn6)nc5c4)cn3)C2)cc1 [Example 0701] | > 6.00 | > 6.00 | – |
| COCCC(=O)Nc1cnc2ccc(Nc3cc(C(C)C)cnn3)nc2c1 [Example 0632, N-(6-((5-isopropylpyridazin-3-yl)amino)-1,5-naphthyridin-3-yl)-3-methoxypropanamide] | > 6.00 | 5.00 to 6.00 | – |
| CC(C)c1cnnc(Nc2ccc3ncc(-c4cnn(CCF)c4)cc3n2)c1 [Example 0466] | > 6.00 | > 6.00 | – |
| CC(C)c1cnnc(Nc2ccc3ncc(NC4CCCC4)cc3n2)c1 [Example 0878] | > 6.00 | 5.00 to 6.00 | – |
| CC(C)c1cnnc(Nc2ccc3ncc(-c4cnn(CCCN5CC(OCC6CC6)C5)c4)cc3n2)c1 [Example 0709] | > 6.00 | > 6.00 | – |
| CC(C)c1cnnc(Nc2ccc3ncc(-c4cnn(CCC5CCOCC5)c4)cc3n2)c1 [Example 0483] | > 6.00 | > 6.00 | – |
| CC(C)c1cnnc(Nc2ccc3ncc(-c4cn(C)nc4N4CC5(COC5)C4)cc3n2)c1 [Example 0934] | > 6.00 | – | > 6.00 |
| CC(C)c1cnnc(Nc2ccc3ncc(-c4cnn(CCCN5CCN(C(=O)N(C)C)CC5)c4)cc3n2)c1 [Example 0433] | > 6.00 | > 6.00 | – |

| SMILES | pIC50 (human PI3Kα protein) | pIC50 ([1]; ERK2 enzyme assay (2)) | pIC50 [1] |
| --- | --- | --- | --- |
| CC(C)c1cnnc(Nc2ccc3ncc(-c4cnn(CCCN5CCC(F)(F)C5)c4)cc3n2)c1 [Example 0427] | > 6.00 | > 6.00 | – |
| COc1cnnc(Nc2ccc3ncc(-c4cnn(C)c4)cc3n2)c1 [Example 0495, N-(5-methoxypyridazin-3-yl)-7-(1-methyl-1H-pyrazol-4-yl)-1,5-naphthyridine-2-amine] | > 6.00 | > 6.00 | – |
| CC(C)c1cnnc(Nc2ccc3ncc(-c4cn(C)nc4Br)cc3n2)c1 [Example 0931] | > 6.00 | – | > 6.00 |
| CNC(=O)c1cnc2ccc(Nc3cc(C(C)C)cnn3)nc2c1 [Example 0642] | 5.00 to 6.00 | > 6.00 | – |
| CC(C)c1cnnc(Nc2ccc3ncc(-c4cnn(CCOC5CN(C(C)C)C5)c4)cc3n2)c1 [Example 0742] | > 6.00 | > 6.00 | – |
| CC(C)c1cnnc(Nc2ccc3ncc(-n4cnc(CC#N)c4)cc3n2)c1 [Example 0508, 2-(1-(6-((5-Isopropylpyridazin-3-yl)amino)-1,5-naphthyridin-3-yl)-1H-imidazol-4-yl)acetonitrile] | > 6.00 | > 6.00 | – |
| Cc1cncc(-c2nn(C)cc2-c2cnc3ccc(Nc4cc(C(C)C)cnn4)nc3c2)c1 [Example 0555] | > 6.00 | > 6.00 | – |
| CC(C)c1cnnc(Nc2ccc3ncc(-c4ccc(O)nc4)cc3n2)c1 [Example 0592] | > 6.00 | > 6.00 | – |
| C=Cn1cc(-c2cnc3ccc(Nc4cc(C(C)C)cnn4)nc3c2)cn1 [Example 0610, N-(5-isopropylpyridazin-3-yl)-7-(1-vinyl-1H-pyrazol-4-yl)-1,5-naphthyridine-2-amine] | > 6.00 | > 6.00 | – |
| CC(C)c1cnnc(Nc2ccc3ncc(-c4cn(C)nc4C4CN(C(=O)OC(C)(C)C)C4)cc3n2)c1 [Example 0779, tert-butyl 3-(4-(6-((5-isopropylpyridazin-3-yl)amino)-1,5-naphthyridin-3-yl)-1-methyl-1H-pyrazol-3-yl)azetidine-1-carboxylate] | > 6.00 | > 6.00 | – |
| CC(C)c1cnnc(Nc2ccc3ncc(-c4cn(C)nc4COc4cccc(OCC(=O)N(C)C)c4)cc3n2)c1 [Example 0810] | > 6.00 | > 6.00 | – |
| COCCN(CCOC)c1nn(C)cc1-c1cnc2ccc(Nc3cc(C(C)C)cnn3)nc2c1 [Example 0947] | 5.00 to 6.00 | – | 5.00 to 6.00 |
| CC(C)c1cnnc(Nc2ccc3ncc(-c4cnn(CCN5C[C@H](C)O[C@@H](C)C5)c4)cc3n2)c1 [Example 0616, 7-(1-(2-((2S,6S)-2,6-dimethylmorpholino)ethyl)-1H-pyrazol-4-yl)-N-(5-isopropylpyridazin-3-yl)-1,5-naphthyridine-2-amine] | > 6.00 | > 6.00 | – |
| CC(C)C(=O)N1CCC(Cn2cc(-c3cnc4ccc(Nc5cc(C(C)C)cnn5)nc4c3)cn2)CC1 [Example 0536] | > 6.00 | > 6.00 | – |
| CC(=O)N1CCN(c2cnc3ccc(Nc4cc(C(C)C)cnn4)nc3c2)CC1 [Example 0872] | > 6.00 | > 6.00 | – |
| Cc1nn(C)cc1-c1cnc2ccc(Nc3cc(CC4CCCCC4)cnn3)nc2c1 [Example 0789] | > 6.00 | > 6.00 | – |
| CC(C)c1cnnc(Nc2ccc3ncc(-c4cnn(CC5CCN(C(=O)N6CCCCC6)CC5)c4)cc3n2)c1 [Example 0533] | > 6.00 | > 6.00 | – |
| Cn1cc(-c2cnc3ccc(Nc4cc(CC5CCCCC5)cnn4)nc3c2)cn1 [Example 0586] | > 6.00 | > 6.00 | – |
| CC(C)c1cnnc(Nc2ccc3ncc(-c4cnn(CCC(=O)N5CCCCC5)c4)cc3n2)c1 [Example 0416] | > 6.00 | > 6.00 | – |
